{
  "source": "BindingDB's records for doi:10.1016/j.bmcl.2010.10.033",
  "about": "(Glaxosmithkline, 2010)",
  "key": {"[1]": {"assay": "Antagonist activity at CCR5 in HOS cells assessed as inhibition of HIV-1 Ba-L infection"}, "[2]": {"assay": "Antagonist activity at CCR5 in human peripheral blood lymphocytes cells assessed as inhibition of HIV-1 Ba-L infection"}},
  "data": [
    {"smiles": "C=CCN(C(=O)Cc1ccc(C(F)(F)F)cc1)C1CCN(CCC2(c3cccc(F)c3)CCN(C(=O)c3cc(S(=O)(=O)NC(C)(C)C)c(F)cc3Cl)CC2)CC1", "note": "[N-allyl-N-(1-(2-(1-(5-(N-tert-butylsulfamoyl)-2-chloro-4-fluorobenzoyl)-4-(3-fluorophenyl)piperidin-4-yl)ethyl)piperidin-4-yl)-2-(4-(trifluoromethyl)phenyl)acetamide]", "values": [
      {"measurement": "IC50", "setting": "[1]", "value": 3.3, "unit": "nM"},
      {"measurement": "IC50", "setting": "[2]", "value": 53, "unit": "nM"}
    ]},
    {"smiles": "CCCCN(C(=O)NCc1ccc(C#N)cc1)C1CCN(CCC2(c3cccc(F)c3)CCN(C(=O)c3cc(S(=O)(=O)NC(C)(C)C)c(F)cc3Cl)CC2)CC1", "note": "[N-tert-butyl-5-(4-(2-(4-(1-butyl-3-(4-cyanobenzyl)ureido)piperidin-1-yl)ethyl)-4-(3-fluorophenyl)piperidine-1-carbonyl)-4-chloro-2-fluorobenzenesulfonamide]", "values": [
      {"measurement": "IC50", "setting": "[1]", "value": 2.6, "unit": "nM"},
      {"measurement": "IC50", "setting": "[2]", "value": 11, "unit": "nM"}
    ]},
    {"smiles": "C=CCN(C(=O)Nc1ccc(S(C)(=O)=O)cc1)C1CCN(CCC2(c3cccc(F)c3)CCN(C(=O)c3cc(S(=O)(=O)NC(C)(C)C)c(F)cc3Cl)CC2)CC1", "note": "[5-(4-(2-(4-(1-allyl-3-(4-(methylsulfonyl)phenyl)ureido)piperidin-1-yl)ethyl)-4-(3-fluorophenyl)piperidine-1-carbonyl)-N-tert-butyl-4-chloro-2-fluorobenzenesulfonamide]", "values": [
      {"measurement": "IC50", "setting": "[1]", "value": 11.5, "unit": "nM"},
      {"measurement": "IC50", "setting": "[2]", "value": 35, "unit": "nM"}
    ]},
    {"smiles": "C=CCN(C(=O)NCc1ccc(C#N)cc1)C1CCN(CCC2(c3cccc(F)c3)CCN(C(=O)c3cc(S(=O)(=O)NC(C)(C)C)c(F)cc3Cl)CC2)CC1", "note": "[5-(4-(2-(4-(1-allyl-3-(4-cyanobenzyl)ureido)piperidin-1-yl)ethyl)-4-(3-fluorophenyl)piperidine-1-carbonyl)-N-tert-butyl-4-chloro-2-fluorobenzenesulfonamide]", "values": [
      {"measurement": "IC50", "setting": "[1]", "value": 3.9, "unit": "nM"},
      {"measurement": "IC50", "setting": "[2]", "value": 3.7, "unit": "nM"}
    ]},
    {"smiles": "C=CCN(C(=O)Nc1ccc(C#N)cc1)C1CCN(CCC2(c3cccc(F)c3)CCN(C(=O)c3cc(S(=O)(=O)NC(C)(C)C)c(F)cc3Cl)CC2)CC1", "note": "[5-(4-(2-(4-(1-allyl-3-(4-cyanophenyl)ureido)piperidin-1-yl)ethyl)-4-(3-fluorophenyl)piperidine-1-carbonyl)-N-tert-butyl-4-chloro-2-fluorobenzenesulfonamide]", "values": [
      {"measurement": "IC50", "setting": "[1]", "value": 20.5, "unit": "nM"},
      {"measurement": "IC50", "setting": "[2]", "value": 25, "unit": "nM"}
    ]},
    {"smiles": "C=CCN(C(=O)OCc1ccc(C(F)(F)F)cc1)C1CCN(CCC2(c3cccc(F)c3)CCN(C(=O)c3cc(S(=O)(=O)NC(C)(C)C)c(F)cc3Cl)CC2)CC1", "note": "[4-(trifluoromethyl)benzyl allyl(1-(2-(1-(5-(N-tert-butylsulfamoyl)-2-chloro-4-fluorobenzoyl)-4-(3-fluorophenyl)piperidin-4-yl)ethyl)piperidin-4-yl)carbamate]", "values": [
      {"measurement": "IC50", "setting": "[1]", "value": 15, "unit": "nM"},
      {"measurement": "IC50", "setting": "[2]", "value": 40, "unit": "nM"}
    ]},
    {"smiles": "C=CCN(C(=O)OCc1ccc(S(C)(=O)=O)cc1)C1CCN(CCC2(c3cccc(F)c3)CCN(C(=O)c3cc(S(=O)(=O)NC(C)(C)C)c(F)cc3Cl)CC2)CC1", "note": "[4-(methylsulfonyl)benzyl allyl(1-(2-(1-(5-(N-tert-butylsulfamoyl)-2-chloro-4-fluorobenzoyl)-4-(3-fluorophenyl)piperidin-4-yl)ethyl)piperidin-4-yl)carbamate]", "values": [
      {"measurement": "IC50", "setting": "[1]", "value": 17, "unit": "nM"},
      {"measurement": "IC50", "setting": "[2]", "value": 4.5, "unit": "nM"}
    ]},
    {"smiles": "C=CCN(C(=O)OCc1ccc([N+](=O)[O-])cc1)C1CCN(CCC2(c3cccc(F)c3)CCN(C(=O)c3cc(S(=O)(=O)NC(C)(C)C)c(F)cc3Cl)CC2)CC1", "note": "[4-nitrobenzyl allyl(1-(2-(1-(5-(N-tert-butylsulfamoyl)-2-chloro-4-fluorobenzoyl)-4-(3-fluorophenyl)piperidin-4-yl)ethyl)piperidin-4-yl)carbamate]", "values": [
      {"measurement": "IC50", "setting": "[1]", "value": 8.6, "unit": "nM"},
      {"measurement": "IC50", "setting": "[2]", "value": 24, "unit": "nM"}
    ]},
    {"smiles": "C=CCN(C(=O)NCc1ccc(F)cc1)C1CCN(CCC2(c3cccc(F)c3)CCN(C(=O)c3cc(S(=O)(=O)NC(C)(C)C)c(F)cc3Cl)CC2)CC1", "note": "[5-(4-(2-(4-(1-allyl-3-(4-fluorobenzyl)ureido)piperidin-1-yl)ethyl)-4-(3-fluorophenyl)piperidine-1-carbonyl)-N-tert-butyl-4-chloro-2-fluorobenzenesulfonamide]", "values": [
      {"measurement": "IC50", "setting": "[1]", "value": 46, "unit": "nM"}
    ]},
    {"smiles": "C=CCN(C(=O)CCc1ccc(OC(F)(F)F)cc1)C1CCN(CCC2(c3cccc(F)c3)CCN(C(=O)c3cc(S(=O)(=O)NC)c(F)cc3Cl)CC2)CC1", "note": "[N-allyl-N-(1-(2-(1-(2-chloro-4-fluoro-5-(N-methylsulfamoyl)benzoyl)-4-(3-fluorophenyl)piperidin-4-yl)ethyl)piperidin-4-yl)-3-(4-(trifluoromethoxy)phenyl)propanamide]", "values": [
      {"measurement": "IC50", "setting": "[1]", "value": 420, "unit": "nM"}
    ]},
    {"smiles": "C=CCN(C(=O)Cc1ccc(OC(F)(F)F)cc1)C1CCN(CCC2(c3cccc(F)c3)CCN(C(=O)c3cc(S(=O)(=O)NC(C)(C)C)c(F)cc3Cl)CC2)CC1", "note": "[N-allyl-N-(1-(2-(1-(5-(N-tert-butylsulfamoyl)-2-chloro-4-fluorobenzoyl)-4-(3-fluorophenyl)piperidin-4-yl)ethyl)piperidin-4-yl)-2-(4-(trifluoromethoxy)phenyl)acetamide]", "values": [
      {"measurement": "IC50", "setting": "[1]", "value": 18, "unit": "nM"},
      {"measurement": "IC50", "setting": "[2]", "value": 87, "unit": "nM"}
    ]},
    {"smiles": "C=CCN(C(=O)NCc1ccc(C(F)(F)F)cc1)C1CCN(CCC2(c3cccc(F)c3)CCN(C(=O)c3cc(S(=O)(=O)NC(C)(C)C)c(F)cc3Cl)CC2)CC1", "note": "[5-(4-(2-(4-(1-allyl-3-(4-(trifluoromethyl)benzyl)ureido)piperidin-1-yl)ethyl)-4-(3-fluorophenyl)piperidine-1-carbonyl)-N-tert-butyl-4-chloro-2-fluorobenzenesulfonamide]", "values": [
      {"measurement": "IC50", "setting": "[1]", "value": 6.9, "unit": "nM"},
      {"measurement": "IC50", "setting": "[2]", "value": 42, "unit": "nM"}
    ]},
    {"smiles": "C=CCN(C(=O)NCc1ccc(C(=O)OC)cc1)C1CCN(CCC2(c3cccc(F)c3)CCN(C(=O)c3cc(S(=O)(=O)NC(C)(C)C)c(F)cc3Cl)CC2)CC1", "note": "[methyl 4-((3-allyl-3-(1-(2-(1-(5-(N-tert-butylsulfamoyl)-2-chloro-4-fluorobenzoyl)-4-(3-fluorophenyl)piperidin-4-yl)ethyl)piperidin-4-yl)ureido)methyl)benzoate]", "values": [
      {"measurement": "IC50", "setting": "[1]", "value": 26, "unit": "nM"},
      {"measurement": "IC50", "setting": "[2]", "value": 146, "unit": "nM"}
    ]},
    {"smiles": "C=CCN(C(=O)CCc1ccc(C#N)cc1)C1CCN(CCC2(c3cccc(F)c3)CCN(C(=O)c3cc(S(=O)(=O)NC)c(F)cc3Cl)CC2)CC1", "note": "[N-allyl-N-(1-(2-(1-(2-chloro-4-fluoro-5-(N-methylsulfamoyl)benzoyl)-4-(3-fluorophenyl)piperidin-4-yl)ethyl)piperidin-4-yl)-3-(4-cyanophenyl)propanamide]", "values": [
      {"measurement": "IC50", "setting": "[1]", "value": 150, "unit": "nM"}
    ]},
    {"smiles": "C=CCN(C(=O)Nc1ccc(C(F)(F)F)cc1)C1CCN(CCC2(c3cccc(F)c3)CCN(C(=O)c3cc(S(=O)(=O)NC(C)(C)C)c(F)cc3Cl)CC2)CC1", "note": "[5-(4-(2-(4-(1-allyl-3-(4-(trifluoromethyl)phenyl)ureido)piperidin-1-yl)ethyl)-4-(3-fluorophenyl)piperidine-1-carbonyl)-N-tert-butyl-4-chloro-2-fluorobenzenesulfonamide]", "values": [
      {"measurement": "IC50", "setting": "[1]", "value": 64, "unit": "nM"}
    ]}
  ]
}
